In brackets after ≈: the same amount, converted by molar mass. Where two headings read alike, the source gives them in different places.
Columns and labels:
Staph. aureus Oxford = experiment: Antibacterial activity against Gram-positive organisms (MIC); format: cell-based; details: Staphylococcus aureus
B. Subtilis = experiment: as above; format: cell-based; details: Bacillus subtilis
N.gonorrhoeae = experiment: Activity against N.gonorrhoeae, MIC by serial dilution in 10% horse blood agar; format: cell-based; details: Neisseria gonorrhoeae, 24 h
Description: (§1) *Serial dilution in 10% horse blood agar. Incubated in a partial atmosphere of CO2 for 24 hours at 37° C. Inoculated with one drop (0.001ml) of an overnight cell suspension.

Staph. aureus Russell = experiment: Antibacterial activity against Gram-positive organisms (MIC); format: cell-based; details: Staphylococcus aureus
Strep. faecalis = experiment: as above; format: cell-based; details: Enterococcus faecalis
Oxford Staph. = experiment: MIC by serial dilution in 10% horse blood agar (Table 2); format: cell-based; details: 24 hours at 37° C.
Description: as §1

β-Haemolytic Strep. CN10 = experiment: Antibacterial activity against Gram-positive organisms (MIC); format: cell-based
Staph. aureus 1517 = experiment: as above; format: cell-based; details: Staphylococcus aureus
M. pneumoniae 429 a = experiment: Antimycoplasmal MIC, metabolic-inhibition test in Microtitre plates; format: cell-based; details: Mycoplasmoides pneumoniae, 168 h, source man, 37° C. for 7 days
Description: (§2) The method used to test for antimycoplasmal activity was as follows:
(§3) The minimal inhibitory concentration (MIC) of the pseudomonic acid amides was determined in Microtitre plates, by a modification of the metabolic-inhibition test (Taylor-Robinson, 1967). The compounds were serially diluted in sterile de-ionised water to give a range of concentrations from 250-0.5 μg/ml. Mycoplasma broth containing 1% (w/v) of glucose and 0.005% (w/v) of phenol red, was added at a strength to compensate for its dilution by the aqueous drug solution. Approximately 10^4 colony forming units of mycoplasma were added to each concentration of drug. Drug-free infected, non-infected and pH control wells were included on each plate. Plates were sealed with cellophane tape and incubated at 37° C. for 7 days. The MIC was the lowest concentration of compound that prevented a colour change in the mycoplasma broth caused by the metabolism of glucose by the mycoplasmas.

M. synoviae ATCC 25204 = experiment: as above; format: cell-based; details: Mycoplasmopsis synoviae, ATCC25204, 168 h; M. synoviae ATCC 25204, source chicken; 37° C. for 7 days
Description: as §2, §3

M. gallisepticum S6 = experiment: as above; format: cell-based; details: Mycoplasmoides gallisepticum, 168 h; M. gallisepticum S6, source chicken; 37° C. for 7 days
Description: as §2, §3

M. fermentans MWKL4 = experiment: as above; format: cell-based; details: Mycoplasmopsis fermentans, 168 h; M. fermentans MWKL4, source man; 37° C. for 7 days
Description: as §2, §3

M. suipneumoniae (Laber) = experiment: as above; format: cell-based; details: Mesomycoplasma hyopneumoniae, 168 h, source pig, 37° C. for 7 days
Description: as §2, §3

M. pulmonis `JB` = experiment: as above; format: cell-based; details: Mycoplasmopsis pulmonis, 168 h, source mouse, 37° C. for 7 days
Description: as §2, §3

M. dispar H 225 = experiment: as above; format: cell-based; details: 168 h; M. dispar H 225, source cattle; 37° C. for 7 days
Description: as §2, §3

M. agalactiae ATCC 25025 = experiment: as above; format: cell-based; details: Mycoplasmopsis agalactiae, ATCC25025, 168 h; M. agalactiae ATCC 25025, source cattle; 37° C. for 7 days
Description: as §2, §3

[1] = tested on: mycoplasmas from human and veterinary sources; experiment: Antimycoplasmal activity in vitro (summary); format: cell-based, mycoplasma; details: in words
Description: as §2, §3

[2] = Serum binding by ultrafiltration, filtrate assayed by hole-in-plate method; format: in vitro ADME
Description: The degree of binding to human serum of the compounds of Examples 1 and 2 compared with that of pseudomonic acid was determined by the following procedure:
Test samples were mixed with human serum and placed in visking tubing. Serum binding was determined by ultrafiltration, the filtrate obtained being assayed by a hole-in-plate method using Bacillus subtilis ATCC 6633 against standards prepared in 0.05M pH7.0 phosphate buffer.

[3] = strain 69, 24 hours at 37° C., read-out: M.I.C.
[4] = strain 70, 24 hours at 37° C., read-out: M.I.C.
[5] = strain 77, 24 hours at 37° C., read-out: M.I.C.
[6] = strain 82, 24 hours at 37° C., read-out: M.I.C.
[7] = strain 87, 24 hours at 37° C., read-out: M.I.C.
[8] = strain 2176, 24 hours at 37° C., read-out: M.I.C.
[9] = strain AR 229, 24 hours at 37° C., read-out: M.I.C.
[10] = strain H2057, 24 hours at 37° C., read-out: M.I.C.
[11] = strain VD 79, 24 hours at 37° C., read-out: M.I.C.
[12] = strain VDRL 67, 24 hours at 37° C., read-out: M.I.C.
[13] = strain WHO VII, 24 hours at 37° C., read-out: M.I.C.

Work on `C/C(=C\C(=O)OCCCCCCCCC(N)=O)CC1OCC(CC2OC2C(C)C(C)O)C(O)C1O` (stereo not drawn) [Example 2, Pseudomonic Acid Amide] yielded an MIC (Staph. aureus Oxford) of 0.5 µg/mL (≈ 1 µM), an MIC (B. Subtilis) of 0.25 µg/mL (≈ 0.5 µM) and an MIC (N.gonorrhoeae; [3]) of 0.002 µg/mL (≈ 0.004 µM). It also gave an MIC (N.gonorrhoeae; [4]) of 0.005 µg/mL (≈ 0.01 µM), an MIC (N.gonorrhoeae; strain 72, 24 hours at 37° C., read-out: M.I.C.) of 0.01 µg/mL (≈ 0.02 µM) and an MIC (N.gonorrhoeae; [5]) of 0.02 µg/mL (≈ 0.04 µM). The MIC (N.gonorrhoeae; [6]) was 0.05 µg/mL (≈ 0.1 µM), the MIC (N.gonorrhoeae; [7]) was 0.005 µg/mL (≈ 0.01 µM) and the MIC (N.gonorrhoeae; [8]) was 0.02 µg/mL (≈ 0.04 µM). The MIC (N.gonorrhoeae; [9]) was 0.05 µg/mL (≈ 0.1 µM), the MIC (N.gonorrhoeae; [10]) was 0.005 µg/mL (≈ 0.01 µM) and the MIC (N.gonorrhoeae; [11]) was 0.02 µg/mL (≈ 0.04 µM). It also gave an MIC (N.gonorrhoeae; [12]) of 0.002 µg/mL (≈ 0.004 µM), an MIC (N.gonorrhoeae; [13]) of 0.002 µg/mL (≈ 0.004 µM) and an MIC (Staph. aureus Russell) of 1 µg/mL (≈ 2 µM). It also gave an MIC (Strep. faecalis) of 100 µg/mL (≈ 200 µM), an MIC (Oxford Staph.) of 0.05 µg/mL (≈ 0.1 µM) and an MIC (β-Haemolytic Strep. CN10) of 0.1 µg/mL (≈ 0.2 µM). It also gave an MIC (Staph. aureus 1517) of 2.5 µg/mL (≈ 5 µM), an MIC (M. pneumoniae 429 a) of 250 µg/mL (≈ 500 µM) and an MIC (M. synoviae ATCC 25204) of less than 0.5 µg/mL. For the same compound, the MIC (M. gallisepticum S6) was less than 0.5 µg/mL, the MIC (M. fermentans MWKL4) was less than 0.5 µg/mL and the MIC (M. suipneumoniae (Laber)) was less than 0.5 µg/mL. It also gave an MIC (M. pulmonis `JB`) of less than 0.5 µg/mL, an MIC (M. dispar H 225) of less than 0.5 µg/mL and an MIC (M. agalactiae ATCC 25025) of less than 0.5 µg/mL. For the same compound, the “antimycoplasmal activity in vitro” value [1] was “good antimycoplasmal activity”.
With `C/C(=C\C(=O)OCCCCCCCCC(=O)O)C[C@@H]1OC[C@H](C[C@@H]2O[C@H]2[C@@H](C)[C@H](C)O)[C@@H](O)[C@H]1O` [Pseudomonic acid] the “% unbound in human serum” value [2] was 6.8% and the fraction unbound ([2]; human, serum) was 0.066.
In the case of `CNC(=O)CCCCCCCCOC(=O)/C=C(\C)CC1OCC(CC2OC2C(C)C(C)O)C(O)C1O` (stereo not drawn) [Example 1, Pseudomonic acid N-methylamide], the MIC (Staph. aureus Oxford) is reported as 0.5 µg/mL (≈ 0.973 µM), the MIC (B. Subtilis) is reported as 0.25 µg/mL (≈ 0.487 µM) and the MIC (N.gonorrhoeae; [3]) is reported as 0.002 µg/mL (≈ 0.00389 µM). The MIC (N.gonorrhoeae; [4]) was 0.005 µg/mL (≈ 0.00973 µM), the MIC (N.gonorrhoeae; [5]) was 0.005 µg/mL (≈ 0.00973 µM) and the MIC (N.gonorrhoeae; [6]) was 0.05 µg/mL (≈ 0.0973 µM). It also gave an MIC (N.gonorrhoeae; [7]) of 0.01 µg/mL (≈ 0.0195 µM), an MIC (N.gonorrhoeae; [8]) of 0.02 µg/mL (≈ 0.0389 µM) and an MIC (N.gonorrhoeae; [9]) of 0.05 µg/mL (≈ 0.0973 µM). The MIC (N.gonorrhoeae; [10]) was 0.005 µg/mL (≈ 0.00973 µM), the MIC (N.gonorrhoeae; [11]) was 0.02 µg/mL (≈ 0.0389 µM) and the MIC (N.gonorrhoeae; [12]) was 0.002 µg/mL (≈ 0.00389 µM). It also gave an MIC (N.gonorrhoeae; [13]) of 0.005 µg/mL (≈ 0.00973 µM), an MIC (Staph. aureus Russell) of 1.25 µg/mL (≈ 2.43 µM) and an MIC (Strep. faecalis) of 125 µg/mL (≈ 243 µM). It also gave an MIC (Oxford Staph.) of 0.05 µg/mL (≈ 0.0973 µM) and an MIC (Staph. aureus 1517) of 1.25 µg/mL (≈ 2.43 µM).
In the case of `C/C(=C\C(=O)OCCCCCCCCC(=O)N(C)C)CC1OCC(CC2OC2C(C)C(C)O)C(O)C1O` (stereo not drawn) [Example 3, Pseudomonic acid N,N-dimethylamide], the MIC (M. pneumoniae 429 a) is reported as 250 µg/mL (≈ 474 µM), the MIC (M. synoviae ATCC 25204) is reported as less than 0.5 µg/mL and the MIC (M. gallisepticum S6) is reported as less than 0.5 µg/mL. The MIC (M. fermentans MWKL4) was less than 0.5 µg/mL, the MIC (M. suipneumoniae (Laber)) was 3.9 µg/mL (≈ 7.39 µM) and the MIC (M. pulmonis `JB`) was less than 0.5 µg/mL. The MIC (M. dispar H 225) was less than 0.5 µg/mL, the MIC (M. agalactiae ATCC 25025) was less than 0.5 µg/mL and the “antimycoplasmal activity in vitro” value [1] was “good antimycoplasmal activity”.
Work on `CC1(C)S[C@@H]2[C@H](NC(=O)Cc3ccccc3)C(=O)N2[C@H]1C(=O)O` [Benzyl Penicillin, benzylpenicillin, reference compound] yielded an MIC (N.gonorrhoeae; strain 69, 24 hours at 37° C.) of 0.1 µg/mL (≈ 0.299 µM), an MIC (N.gonorrhoeae; strain 70, 24 hours at 37° C.) of 0.1 µg/mL (≈ 0.299 µM) and an MIC (N.gonorrhoeae; strain 72, 24 hours at 37° C.) of 0.2 µg/mL (≈ 0.598 µM). The MIC (N.gonorrhoeae; strain 77, 24 hours at 37° C.) was 0.1 µg/mL (≈ 0.299 µM), the MIC (N.gonorrhoeae; strain 82, 24 hours at 37° C.) was 0.5 µg/mL (≈ 1.5 µM) and the MIC (N.gonorrhoeae; strain 87, 24 hours at 37° C.) was 0.01 µg/mL (≈ 0.0299 µM). The MIC (N.gonorrhoeae; strain 2176, 24 hours at 37° C.) was 0.2 µg/mL (≈ 0.598 µM), the MIC (N.gonorrhoeae; strain AR 229, 24 hours at 37° C.) was 1 µg/mL (≈ 2.99 µM) and the MIC (N.gonorrhoeae; strain H2057, 24 hours at 37° C.) was 0.005 µg/mL (≈ 0.015 µM). The MIC (N.gonorrhoeae; strain VD 79, 24 hours at 37° C.) was 0.2 µg/mL (≈ 0.598 µM), the MIC (N.gonorrhoeae; strain VDRL 67, 24 hours at 37° C.) was 0.05 µg/mL (≈ 0.15 µM) and the MIC (N.gonorrhoeae; strain WHO VII, 24 hours at 37° C.) was 0.005 µg/mL (≈ 0.015 µM). For the same compound, the MIC (Oxford Staph.) was 0.02 µg/mL (≈ 0.0598 µM).

— patent publication US4139629A, “Pseudomonic acid amide antibacterial compounds” (priority 1976, dated 1979)
